What was measured:
[1] = test system: CD11b expression in splenic B cells; test: CD11b expression in stimulated splenic B cells in the presence of TLR and NOD2 inhibitors; assay type: cell-based, Balb/c mice
TNF-α = test: Oral adjuvant with OVA as antigen, serum TNF-α ELISA; assay type: in vivo, C57BL/6 mice; settings: oral immunization with OVA 1 mg 3 times every 2 weeks, blood on second day after third immunization
Method: Serum TNF-α levels were measured in accordance with the protocol of mouse TNF-α ELISA kit (Invitrogen Corporation, BMS607-3).

[2] = test system: CD11b expression in splenic naive B cells; test: Stimulation of splenic naive B cells in vitro, CD11b expression by flow cytometry; assay type: cell-based, Balb/c mice
Method: (§1) Splenic B cells were negatively sorted from the spleens of 8-week-old Balb/c mice using a B cell isolation kit (Miltenyi Biotec B.V. & Co. KG). The splenic B cells (concentration: 5×10^5/ml) were cultured in RPMI1640 medium, and 13 types of independent stimuli were each applied thereto. Anti-mouse IgM (15 μg/ml; Jackson ImmunoResearch Laboratories Inc.) • 2. Anti-mouse-CD40 (HM40-3, 500 ng/ml; manufactured by BioLegend, Inc.) • 3. BAFF (50 ng/ml; BioLegend, Inc.) • 4. Pam3CSK4 (1 μg/ml, InvivoGen) • 5. Poly I:C (25 ng/ml, InvivoGen) • 6. LPS (50 ng/ml, Sigma-Aldrich, Inc.) • 7. Flagellin (20 ng/ml, Sigma-Aldrich, Inc.) • 8. Imiquimod (R837, 5 ng/ml; InvivoGen) • 9. CpG (20 μg/ml, GeneDsign Inc.) • 10. […] Heat-killed S. enterica (10^8 CFU/ml) • 12. Heat-killed B. bifidum (10^7 CFU/ml) • 13. Heat-killed B. breve (10^7 CFU/ml)
For MDP stimulation, purified splenic B cells (5×10^5/ml) were cultured in RPMI1640 medium supplemented with N-acetylmuramyl-L-alanyl-D-isoglutamine hydrate (1 μg/ml; Sigma-Aldrich Inc.).

OVA-specific IgA = test: Oral immunization with OVA plus adjuvant, ELISA of OVA-specific IgA in stools; assay type: in vivo, mice; settings: OVA 1 mg with or without adjuvant on Day 0 and Day 16, stools Day 21
Method: Stools were collected on Day 21, and OVA-specific antibody measurement was performed by enzyme-linked immunosorbent assay (ELISA).
The stools were suspended in 10-times weight/volume (w/v) PBS. After performing centrifugation (8,000 g, 15 minutes), the supernatant was collected as a fecal extract. A plate was precoated with 1 mg/ml OVA overnight, followed by blocking with PBS containing 1% (w/v) bovine serum albumin at room temperature for 1 hour. Then, a serially diluted fecal extract was added to the plate, and the plate was incubated at room temperature for 1 hour. Relative avidity of IgA was detected using alkaline phosphatase-labeled goat anti-mouse IgA (manufactured by Southern Biotech). After incubation overnight at 4° C., optical density (OD) values at 405 nm were measured using TriStar Multimode Reader LB 942 (manufactured by Berthold Technologies GmbH & Co. KG).

PP GC = test: In vivo imaging of transplanted iGB cells induced by pre-stimulation (entry into PP GC); parameters: species or system Balb/c mice; settings: splenic naive B cells pre-stimulated 3 days, cultured on 40LB cells 4 days, injected i.v.
Method: Then, 1×10^5 B220^+ B cells were isolated from the stimulated cells, and subsequently, the cells were seeded onto 40LB feeder cells supplemented with rIL-4 (1 ng/ml; BioLegend, Inc.) to induce iGB cells. As a control group, splenic naive B cells not subjected to stimulation were seeded onto the 40LB feeder cells supplemented with rIL-4 (1 ng/ml; BioLegend, Inc.). After culturing for 4 days, naive B-40LB cells, pam3CSK4-40LB cells, E. coli-40LB, IgM-40LB, and CpG-40LB cells of 3×10^5 iGB cells (B220^+) were isolated, labeled with CellTracker Orange CMTMR fluorescent dye (Invitrogen Corporation), and then separately injected intravenously into mice (Balb/c, 8 to 12 weeks old) together with 10 μg of AF488 anti-mouse MAdCAM-1 (BioLegend, Inc. mAb MECA-367) to identify HEV. Under anesthesia, 1 μg of AF647 anti-mouse IgA (Southern Biotech) was directly injected into the PPs of the same mice into which iGB cells were transferred, to stain the IgA^+ cells for GC identification. Localization of intravenously injected labeled iGB cells was observed using a microscope LSM880 (Carl Zeiss AG) and ZEN 2009 (Carl Zeiss AG) analysis software.

[3] = test system: PNAhighB220+ PP GC B cells; test: Oral administration of heat-killed bacteria or pam3CSK4 to WT mice, PP GC B cells after 2 days; settings: within 2 days
Method: Mice orally administered with 100 μl of PBS were prepared as controls. 2 days later, the PPs of these mice were excised, and B cells in the GCs were analyzed using Spectral Cell Analyzer SA3800 (Sony Biotechnology Inc.), as described above.

itgam (CD11b) = test: qPCR analysis of itgam in B cells after stimulation; assay type: cell-based, Balb/c mice
Method: About 1×10^4 PP GC B cells (PNA^hiB220^+ cells) and about 1×10^4 non-GC PP B cells (PNA^loB220^+) were each sorted. RNAs were extracted from the isolated cells using NucleoSpin RNA XS (Takara Bio Inc.), and cDNAs were synthesized using GoScript (registered trademark) Reverse Transcriptase (Promega Corporation). Using KAPA SYBR (registered trademark) FAST qPCR Master Mix (2×) Kit (Kapa Biosystems, Inc.), real-time PCR was performed in triplicate on an optical 384-well PCR plate (F. Hoffmann-La Roche Ltd) using LightCycler 480 (F. Hoffmann-La Roche Ltd). Gene expression levels were normalized to the expression level of the housekeeping gene β-actin. The following primers were used for the analysis.
Splenic B cells were negatively sorted from the spleens of 8-week-old Balb/c mice using a B cell isolation kit (Miltenyi Biotec B.V. & Co. KG). The splenic B cells (concentration: 5×10^5/ml) were cultured in RPMI1640 medium, and 13 types of independent stimuli were each applied thereto. Anti-mouse IgM (15 μg/ml; Jackson ImmunoResearch Laboratories Inc.) • 2. Anti-mouse-CD40 (HM40-3, 500 ng/ml; manufactured by BioLegend, Inc.) • 3. BAFF (50 ng/ml; BioLegend, Inc.) • 4. Pam3CSK4 (1 μg/ml, InvivoGen) • 5. Poly I:C (25 ng/ml, InvivoGen) • 6. LPS (50 ng/ml, Sigma-Aldrich, Inc.) • 7. Flagellin (20 ng/ml, Sigma-Aldrich, Inc.) • 8. Imiquimod (R837, 5 ng/ml; InvivoGen) • 9. […]

splenic naive B cells = test: B cell proliferation / number after in vitro stimulation; assay type: cell-based, Balb/c mice; settings: compared to B cells stimulated with anti-IgM, anti-CD40, BAFF, poly I:C, flagellin, imiquimod
Method: as §1

Molecule: CN(CCc1nc2ccccc2n1CC(=O)Nc1ccc2c(c1)CCC2)C(=O)c1ccccc1 [NOD2 inhibitor]
- CD11b expression in B cells stimulated with pam3CSK4 and heat-killed E. coli with inhibitor ([1]; NOD2 inhibitor 30 μM): strongly suppressed

Molecule: CCOC(=O)C1=CCCC[C@H]1S(=O)(=O)Nc1ccc(F)cc1Cl [TLR4 inhibitor]
- proportion of CD11b+ B cells stimulated with pam3CSK4 and heat-killed E. coli when inhibitor was used ([1]; inhibitor 1 μM, pam3CSK4 1 μg/ml, heat-killed E. coli 10^7 CFU/ml): did not increase

Molecule: CpG-ODN1826
- serum TNFα concentration (TNF-α): cause increase

Molecule: N-acetylmuramyl-L-alanyl-D-isoglutamine hydrate [MDP]
- induction of CD11b expression by NOD2 ligand ([2]; purified splenic B cells, MDP 1 μg/ml): did not induce

Molecule: OVA: ovalbumin, orally administered model antigen
- OVA-specific IgA in the stools (OVA-specific IgA): did not increase

Molecule: pam3CSK4
- entry into GC of iGB cells stimulated in advance, after intravenous injection into mice (PP GC): most of the cells entered GC
- number of PP GC B cells [3]: increased
- proportion of PP GC B cells [3]: increased
- expression of itgam (CD11b) in B cells (itgam (CD11b)): increased
- OVA-specific IgA in the stools (OVA-specific IgA): increased
- proportion of CD11b+ B cells in stimulated B cells ([2]; splenic naive B cells, 3 days stimulation): 27.6%
- number of B cells after 3 days of culturing (splenic naive B cells): significantly increased

B1: BAFF: B-cell activating factor, mimics interaction with DCs (protein, UniProt Q9WU72 127-309, looked up)
Tumor necrosis factor ligand …: AFQGPEETEQDVDLSAPPAPCLPGCRHSQHDDNGMNLRNIIQDCLQLIADSDTPTIRKGTYTFVPWLLSFKRGNALEEKENKIVVRQTGYFFIYSQVLYTDPIFAMGHVIQRKKVHVFGDELSLVTLFRCIQNMPKTLPNNSCYSAGIARLEEGDEIQLAIPRENAQISRNGDDTFFGALKLL
- induction of CD11b expression in naive splenic B cells ([2]; in vitro stimulation, 3 days culture, flow cytometry): did not induce
